Data taken from ChEMBL document CHEMBL1156076, “Design and efficient synthesis of novel arylthiourea derivatives as potent hepatitis C virus inhibitors” (Bioorg Med Chem Lett, 2009).

Legend:
Hepatitis C virus = assay: Antiviral activity against HCV 1b infected in human HuH7 cells assessed as inhibition of viral sub-genomic replication by EG(delta-4AB)SEAP reporter protein assay; assay type: functional, organism-based, Hepacivirus hominis; details: genotype 1b, Huh-7
[1] = Cytotoxicity against human HuH7 cells; assay type: cell-based, Huh-7
[2] = Selectivity index, ratio of CC50 for human HuH7 cells to EC50 for HCV 1b; parameters: species or system Huh-7

Structure (SMILES)	EC50 (Hepatitis C virus) [nM]	CC50 [1] [µM]	Ratio CC50/EC50 [2]
NC(=S)Nc1cccc(OCCCCCc2ccccc2)c1	48	22	458
NC(=S)Nc1cccc(OCCCCCN2CCN(c3ccc(Cl)cc3)C2=O)c1	280	39	139
NC(=S)Nc1cccc(OCCCCCN2CCN(c3ccc(C4CCCCC4)cc3)C2=O)c1	290	12	41
NC(=S)Nc1cccc(OCCCCCN2CCCCN(c3ccc(Cl)cc3)C2=O)c1	250	13	52
NC(=S)Nc1cccc(OCCCCCN2CCN(c3ccc(Oc4ccccc4)cc3)C2=O)c1	27000	> 50	>2
NC(=S)Nc1cccc(OCCCCCN2CCCN(c3ccc(Cl)cc3)C2=O)c1	1500	15	10
NC(=S)Nc1cccc(OCCCCCN2CCN(c3ccccc3-c3ccccc3)C2=O)c1	396	12	30
NC(=S)Nc1cccc(OCCCCCCCCNC(=S)Nc2ccc(N3CCOCC3)cc2)c1	316	> 50	>158
NC(=S)Nc1cccc(OCCCCCCCCNC(=S)Nc2ccc3c(c2)c2ccccc2n3-c2ccccc2)c1	96	> 50	>521
Cc1c(NC(N)=S)cccc1OCCCCCNC(=S)Nc1cccc2ccccc12	> 50000	> 50	>1
NC(=S)Nc1cccc(OCCCCCN2CCN(c3ccccc3-c3ccccc3)C2=S)c1	234	> 50	>214
NC(=S)Nc1cccc(OCCCCCCCCNC(=S)Nc2ccc(Cl)cc2)c1	62	18	290
Cc1ccc(OCCCCCNC(=S)Nc2cccc3ccccc23)cc1NC(N)=S	1030	> 50	>49
NC(=S)Nc1cccc(OCCCCCCCCNC(=S)Nc2ccc(C3CCCCC3)cc2)c1	71	> 50	>704
NC(=S)Nc1cccc(OCCCCCCCCNC(=S)Nc2ccc(Br)cc2)c1	47	18	383
NC(=S)Nc1cccc(OCCCCCCCCNC(=S)Nc2ccc3c(c2)C(=O)c2ccccc2-3)c1	53	> 50	>943
Cn1c2ccccc2c2cc(NC(=S)NCCCCCCCCOc3cccc(NC(N)=S)c3)ccc21	80	> 50	>625
CCCCn1c2ccccc2c2cc(NC(=S)NCCCCCCCCOc3cccc(NC(N)=S)c3)ccc21	45	> 50	>1111
CCn1c2ccccc2c2cc(NC(=S)NCCCCCCCCOc3cccc(NC(N)=S)c3)ccc21	54	> 50	>926
NC(=S)Nc1cccc(OCCCCCCCNC(=S)Nc2cc(Cl)cc(Cl)c2)c1	88	20	227
NC(=S)Nc1cccc(OCCCCCCCCNC(=S)Nc2ccc3c(c2)Cc2ccccc2-3)c1	118	25	212
CCCn1c2ccccc2c2cc(NC(=S)NCCCCCCCCOc3cccc(NC(N)=S)c3)ccc21	48	> 50	>1042
NC(=S)Nc1cccc(OCCCCCNC(=S)Nc2cc(Cl)cc(Cl)c2)c1	177	18	102
NC(=S)Nc1cccc(OCCCCCCCCNC(=S)Nc2cccc(Br)c2)c1	93	20	215

Structure (SMILES)	EC50 (Hepatitis C virus) [nM]	CC50 [1] [µM]	Ratio CC50/EC50 [2]
NC(=S)Nc1cccc(OCCCCCCCCNC(=S)Nc2cc(Cl)cc(Cl)c2)c1	34	12	353
CCCCCCn1c2ccccc2c2cc(NC(=S)NCCCCCCCCOc3cccc(NC(N)=S)c3)ccc21	36	> 50	>1389
NC(=S)Nc1cccc(OCCCCCCCCNC(=S)Nc2ccc3c(c2)c2ccccc2n3CCc2ccccc2)c1	33	> 50	>1515
Cc1ccc(-n2c3ccccc3c3cc(NC(=S)NCCCCCCCCOc4cccc(NC(N)=S)c4)ccc32)cc1	31	> 50	>1612
NC(=S)Nc1cccc(OCCCCCCCCNC(=S)Nc2ccc3c(c2)c2ccccc2n3Cc2ccccc2)c1	36	> 50	>1389
Cc1cc(C)cc(-n2c3ccccc3c3cc(NC(=S)NCCCCCCCCOc4cccc(NC(N)=S)c4)ccc32)c1	44	> 50	>1136
NC(=S)Nc1cccc(OCCCCCCCCNC(=S)Nc2ccc3[nH]ccc3c2)c1	148	18	122
NC(=S)Nc1cccc(OCCCCCNC(=S)Nc2ccc(Cl)cc2)c1	510	> 50	>98
NC(=S)Nc1cccc(OCCCCCCCCNC(=S)Nc2ccccc2)c1	109	> 50	>459
NC(=S)Nc1cccc(OCCCCCCNC(=S)Nc2cc(Cl)cc(Cl)c2)c1	122	21	172
NC(=S)Nc1cccc(OCCCCCNC(=O)Nc2cccc3ccccc23)c1	1390	> 50	>36
NC(=S)Nc1cccc(OCCCCCNC(=S)Nc2cccc3ccccc23)c1	450	> 50	>111
NC(=S)Nc1cccc(OCCCCCN2CCN(c3ccc(Cl)cc3)C2=S)c1	260	> 50	>192
NC(=S)Nc1cccc(OCCCCCN2CCN(c3cccnc3)C2=O)c1	> 50000	> 50	>1
NC(=S)Nc1cccc(OCCCCCCCCNC(=S)Nc2ccccc2Br)c1	131	36	275
NC(=S)Nc1cccc(OCCCCCN2CCN(c3ccc(C4CCCCC4)cc3)C2=S)c1	167	> 50	>299
CC(C)(C)c1ccc(NC(=S)NCCCCCCCCOc2cccc(NC(N)=S)c2)cc1	60	17	283
NC(=S)Nc1cccc(OCCCCCCCCNC(=S)Nc2ccc3[nH]c4ccccc4c3c2)c1	89	> 50	>562
CCCCCn1c2ccccc2c2cc(NC(=S)NCCCCCCCCOc3cccc(NC(N)=S)c3)ccc21	42	> 50	>1190
NC(=S)Nc1cccc(OCCCCCN2CCN(c3ccc(Cl)c(Cl)c3)C2=O)c1	210	13	62
NC(=S)Nc1cccc(OCCCCCN2CCN(c3cccc4ccccc34)C2=O)c1	570	15	26
NC(=S)Nc1cccc(OCCCCCN2CCN(c3ccc(Cl)c(Cl)c3)C2=S)c1	200	> 50	>250
NC(=S)Nc1cccc(OCCCCCCCCNC(=S)Nc2ccc3c(c2)CCC3)c1	80	34	425
